pKi: −log10 of the molar value.

Data on 23 compounds can be found in patent US8404679B2, “Pyrrolidine derivatives as NK2 receptor antagonists” (Hoffmann-La Roche Inc., priority 2008, dated 2013).

The target of the test is T1, human NK2 receptor (Homo sapiens, UniProt P21452).
T1 construct: purchased Perkin Elmer biosignal Inc. 6110510
T1 sequence (P21452 1-398): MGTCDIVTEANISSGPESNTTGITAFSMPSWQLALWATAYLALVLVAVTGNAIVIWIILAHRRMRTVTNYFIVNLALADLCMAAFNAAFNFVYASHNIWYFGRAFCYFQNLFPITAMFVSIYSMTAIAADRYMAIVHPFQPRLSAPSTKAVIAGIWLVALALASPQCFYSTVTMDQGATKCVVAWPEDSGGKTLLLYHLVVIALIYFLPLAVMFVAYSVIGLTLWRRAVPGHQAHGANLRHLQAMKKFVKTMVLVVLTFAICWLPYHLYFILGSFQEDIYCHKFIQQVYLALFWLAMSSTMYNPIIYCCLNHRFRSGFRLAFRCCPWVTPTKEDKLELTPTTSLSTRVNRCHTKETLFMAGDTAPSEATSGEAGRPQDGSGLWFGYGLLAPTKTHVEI
Nature of the test: [3H]SR48968 competition binding assay. The note with it: [3H]SR48968 displacement, membranes of CHO cells stably expressing recombinant human NK2 receptor; Ki from IC50 by Cheng-Prussoff. The essentials: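 Membranes from CHO cells stably expressing recombinant human NK2 were incubated 75 min at RT with [3H]SR48968 at its KD and 10 compound concentrations (0.0003–10 μM) in Tris-HCl pH 7.4, MnCl2, chymostatin, BSA. Filter-bound radioactivity was counted; Hill-fitted IC50 converted to Ki via Cheng-Prusoff.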
Regarding `CN(C(=O)Cc1cccc(F)c1F)[C@H]1CN(C(=O)C2CCN(CC3CC3)CC2)C[C@@H]1c1ccc(Cl)c(Cl)c1` (racemic) [Example 152, N-[(3RS,4SR)-1-(1-Cyclopropylmethyl-piperidine-4-carbonyl)-4-(3,4-dichloro-phenyl)-pyrrolidin-3-yl]-2-(2,3-difluoro-phenyl)-N-methyl-acetamide], the pKi was 7.64.
Then `CN(C(=O)Cc1ccc(Cl)cc1)[C@H]1CN(C(=O)C2CCN(CC3CC3)CC2)C[C@@H]1c1ccc(Cl)c(Cl)c1` (racemic) [Example 158, 2-(4-Chloro-phenyl)-N-[(3RS,4SR)-1-(1-cyclopropylmethyl-piperidine-4-carbonyl)-4-(3,4-dichloro-phenyl)-pyrrolidin-3-yl]-N-methyl-acetamide], with 7.60; and `CC(C(=O)N(C)[C@H]1CN(C(=O)C2CCN(CC3CC3)CC2)C[C@@H]1c1ccc(Cl)c(Cl)c1)c1ccc(F)cc1` (mixture of isomers) [Example 159, N-[(3RS,4SR)-1-(1-Cyclopropylmethyl-piperidine-4-carbonyl)-4-(3,4-dichloro-phenyl)-pyrrolidin-3-yl]-2-(4-fluoro-phenyl)-N-methyl-propionamide], with 7.36.
Then `CN(C(=O)c1ccc(Cl)c(C(F)(F)F)c1)[C@H]1CN(C(=O)C2CCNCC2)C[C@@H]1c1ccc(Cl)cc1` (racemic) [Example 160, 4-Chloro-N-[(3RS,4SR)-4-(4-chloro-phenyl)-1-(piperidine-4-carbonyl)-pyrrolidin-3-yl]-N-methyl-3-trifluoromethyl-benzamide], with 8.30; and `CN(C(=O)c1ccc(Cl)c(C(F)(F)F)c1)[C@H]1CN(C(=O)C2CCN(S(=O)(=O)C3CC3)CC2)C[C@@H]1c1ccc(Cl)cc1` (racemic) [Example 161, 4-Chloro-N-[(3RS,4SR)-4-(4-chloro-phenyl)-1-(1-cyclopropanesulfonyl-piperidine-4-carbonyl)-pyrrolidin-3-yl]-N-methyl-3-trifluoromethyl-benzamide], with 8.77.
To `CN(C(=O)c1ccc(Cl)c(C(F)(F)F)c1)[C@H]1CN(C(=O)C2CCN(C3CCOCC3)CC2)C[C@@H]1c1ccc(Cl)cc1` (racemic) [Example 162, 4-Chloro-N-{(3RS,4SR)-4-(4-chloro-phenyl)-1-[1-(tetrahydro-pyran-4-yl)-piperidine-4-carbonyl]-pyrrolidin-3-yl}-N-methyl-3-trifluoromethyl-benzamide] belongs 9.40; to `CN(C(=O)c1ccc(Cl)c(C(F)(F)F)c1)[C@H]1CN(C(=O)C2CCN(CC#N)CC2)C[C@@H]1c1ccc(Cl)cc1` (racemic) [Example 163, 4-Chloro-N-[(3RS,4SR)-4-(4-chloro-phenyl)-1-(1-cyanomethyl-piperidine-4-carbonyl)-pyrrolidin-3-yl]-N-methyl-3-trifluoromethyl-benzamide], 8.43; to `CN(C(=O)c1ccc(Cl)c(C(F)(F)F)c1)[C@H]1CN(C(=O)C2CCN(CC3CC3)CC2)C[C@@H]1c1ccc(Cl)c(Cl)c1` (racemic) [Example 164, 4-Chloro-N-[(3RS,4SR)-1-(1-cyclopropylmethyl-piperidine-4-carbonyl)-4-(3,4-dichloro-phenyl)-pyrrolidin-3-yl]-N-methyl-3-trifluoromethyl-benzamide], 9.30.
Take `CN(C(=O)c1ccc(Cl)c(C(F)(F)F)c1)[C@H]1CN(C(=O)C2CCN(CCC#N)CC2)C[C@@H]1c1ccc(Cl)cc1` (racemic) [Example 165, 4-Chloro-N-{(3RS,4SR)-4-(4-chloro-phenyl)-1-[1-(2-cyano-ethyl)-piperidine-4-carbonyl]-pyrrolidin-3-yl}-N-methyl-3-trifluoromethyl-benzamide]: the negative logarithm of the Ki (pKi) is 8.89.
In the case of `CN(C(=O)c1cc(C(F)(F)F)ccn1)[C@H]1CN(C(=O)C2CCN(C(=O)C3(C)CC3)CC2)C[C@@H]1c1ccc(Cl)c(Cl)c1` (racemic) [Example 166, 4-Trifluoromethyl-pyridine-2-carboxylic acid {(3RS,4SR)-4-(3,4-dichloro-phenyl)-1-[1-(1-methyl-cyclopropanecarbonyl)-piperidine-4-carbonyl]-pyrrolidin-3-yl}-methyl-amide], the pKi was 9.15.
Then `CN(C(=O)c1ccc(Cl)c(Br)c1)[C@H]1CN(C(=O)C2CCN(C(=O)C3(C)CC3)CC2)C[C@@H]1c1ccc(Cl)c(Cl)c1` (racemic) [Example 171, 3-Bromo-4-chloro-N-{(3RS,4SR)-4-(3,4-dichloro-phenyl)-1-[1-(1-methyl-cyclopropanecarbonyl)-piperidine-4-carbonyl]-pyrrolidin-3-yl}-N-methyl-benzamide], with 9.10.
In the case of `CN(C(=O)c1ccc(Cl)c(C2CC2)c1)[C@H]1CN(C(=O)C2CCN(C(=O)C3(C)CC3)CC2)C[C@@H]1c1ccc(Cl)c(Cl)c1` (racemic) [Example 173, 4-Chloro-3-cyclopropyl-N-{(3RS,4SR)-4-(3,4-dichloro-phenyl)-1-[1-(1-methyl-cyclopropanecarbonyl)-piperidine-4-carbonyl]-pyrrolidin-3-yl}-N-methyl-benzamide], the pKi was 8.77.
With `CCc1cc(C(=O)N(C)[C@H]2CN(C(=O)C3CCN(C(=O)C4(C)CC4)CC3)C[C@@H]2c2ccc(Cl)c(Cl)c2)ccc1Cl` (racemic) [Example 174, 4-Chloro-N-{(3RS,4SR)-4-(3,4-dichloro-phenyl)-1-[1-(1-methyl-cyclopropanecarbonyl)-piperidine-4-carbonyl]-pyrrolidin-3-yl}-3-ethyl-N-methyl-benzamide], the pKi is 9.05.
As for `COc1ccc(C(=O)N(C)[C@@H]2CN(C(=O)N3CCN(S(C)(=O)=O)[C@@H](C)C3)C[C@H]2c2ccc(Cl)c(Cl)c2)cc1C(F)(F)F` [Example 42], the pKi was 8.85.
To `COc1ccc(C(=O)N(C)[C@@H]2CN(C(=O)N3CCN(S(C)(=O)=O)[C@H](C)C3)C[C@H]2c2ccc(Cl)c(Cl)c2)cc1C(F)(F)F` [Example 43] belongs 8.65.
As for `COc1ccc(C(=O)N(C)[C@@H]2CN(C(=O)C3CCN(C(=O)C4(C)CC4)CC3)C[C@H]2c2ccc(Cl)cc2)cc1C(F)(F)F` [Example 94, N-{(3S,4R)-4-(4-Chloro-phenyl)-1-[1-(1-methyl-cyclopropanecarbonyl)-piperidine-4-carbonyl]-pyrrolidin-3-yl}-4-methoxy-N-methyl-3-trifluoromethyl-benzamide], the negative-log Ki (pKi) was 9.22.
For `COc1ccc(C(=O)N(C)[C@@H]2CN(C(=O)C3CCN(C(=O)C4(C)CC4)CC3)C[C@H]2c2ccc(Cl)c(Cl)c2)cc1C(F)(F)F` [Example 107, N-{(3S,4R)-4-(3,4-Dichloro-phenyl)-1-[1-(1-methyl-cyclopropanecarbonyl)-piperidine-4-carbonyl]-pyrrolidin-3-yl}-4-methoxy-N-methyl-3-trifluoromethyl-benzamide], the pKi is 9.22.
On to `CN(C(=O)Cc1ccc(F)cc1)[C@H]1CN(C(=O)C2CCN(C(=O)C3(C)CC3)CC2)C[C@@H]1c1ccc(Cl)c(Cl)c1` [Example 118, N-{(3R,4S)-4-(3,4-Dichloro-phenyl)-1-[1-(1-methyl-cyclopropanecarbonyl)-piperidine-4-carbonyl]-pyrrolidin-3-yl}-2-(4-fluoro-phenyl)-N-methyl-acetamide], for which the pKi was 7.49.
Then `CN(C(=O)Cc1ccc(F)cc1)[C@@H]1CN(C(=O)C2CCN(C(=O)C3(C)CC3)CC2)C[C@H]1c1ccc(Cl)c(Cl)c1` [Example 119, N-{(3S,4R)-4-(3,4-Dichloro-phenyl)-1-[1-(1-methyl-cyclopropanecarbonyl)-piperidine-4-carbonyl]-pyrrolidin-3-yl}-2-(4-fluoro-phenyl)-N-methyl-acetamide], with 7.95; and `COc1ccc(C(=O)N(C)[C@H]2CN(C(=O)C3CCN(C(=O)C4(C)CC4)CC3)C[C@@H]2c2ccc(Cl)cc2C)cc1C(F)(F)F` [Example 123, N-{(3R,4S)-4-(4-Chloro-2-methyl-phenyl)-1-[1-(1-methyl-cyclopropanecarbonyl)-piperidine-4-carbonyl]-pyrrolidin-3-yl}-4-methoxy-N-methyl-3-trifluoromethyl-benzamide], with 7.42; and `CN(C(=O)c1ccc(Cl)c(C(F)(F)F)c1)[C@H]1CN(C(=O)C2CCN(CC3CC3)CC2)C[C@@H]1c1ccc(Cl)cc1` [Example 153, 4-Chloro-N-[(3R,4S)-4-(4-chloro-phenyl)-1-(1-cyclopropylmethyl-piperidine-4-carbonyl)-pyrrolidin-3-yl]-N-methyl-3-trifluoromethyl-benzamide], with 7.28.
Regarding `CN(C(=O)c1ccc(Cl)c(C(F)(F)F)c1)[C@@H]1CN(C(=O)C2CCN(CC3CC3)CC2)C[C@H]1c1ccc(Cl)cc1` [Example 154, 4-Chloro-N-[(3S,4R)-4-(4-chloro-phenyl)-1-(1-cyclopropylmethyl-piperidine-4-carbonyl)-pyrrolidin-3-yl]-N-methyl-3-trifluoromethyl-benzamide], the negative-log Ki (pKi) is 9.30.
In the case of `CN(C(=O)c1ccc(Cl)c(C(F)(F)F)c1)[C@@H]1CN(C(=O)C2CCN(C(=O)C3(C)CC3)CC2)C[C@H]1c1ccc(Cl)cc1` [Example 156, 4-Chloro-N-{(3S,4R)-4-(4-chloro-phenyl)-1-[1-(1-methyl-cyclopropanecarbonyl)-piperidine-4-carbonyl]-pyrrolidin-3-yl}-N-methyl-3-trifluoromethyl-benzamide], the negative-log Ki (pKi) is 9.10.

By pKi is commonly meant the Ki on a negative log10 scale, so that one unit is a factor of ten.
